The source of these data is patent US9828344B2, “Inhibitors of the notch signaling pathway and secretion for use in medicine” (Leibniz-Institut für Altersforschung Fritz-Lipmann-Institut …, priority 2012, dated 2017).

Where two headings read alike, the source gives them in different places.

Data set [1] deals with microtubuli or actin. Kind of data set: Microtubule and actin integrity in HeLa cells. It counts as cell-based. The settings on record: 4 h.
In data set [2] the test system is Golgi apparatus. Kind of data set: Immunofluorescence of Golgi and early secretory pathway markers in HeLa cells. The format is cell-based.
Data set [3] relates to endocytosis. Kind of data set: Transferrin uptake assay. The format is cell-based. The protocol:
FIG. 13: FLI-06 causes dispersal of early Golgi and TGN, but no tubulation of endosomes. Hela cells were incubated with DMSO or 10 iM FLI-06 or 1 ig/ml BFA for 18 h, fixed, stained with antibodies as indicated and imaged by fluorescence microscopy. Endosomes were visualized by adding Alexa555-labelled transferrin on ice and chasing for 15 min at 37° C. in the presence of indicated compounds. Arrows indicated tubulating endosomes, scalebar 10 im.
For the transferrin uptake assay cells were starved in serum free medium for 1 h at 37° C. Cells were then transferred on ice and medium was exchanged to serum free medium supplemented with 25 μg/ml AlexaFluor555-Transferrin conjugate (Molecular Probes) and test compounds. After 15 min on ice cells were incubated with pre-warmed serum-supplemented medium containing test compounds and incubated at 37° C.

The target in data set [4] is T1, GBF1 (Homo sapiens, UniProt Q92538).
T1 construct: expressed in transfected cells; host or cells: HeLa (transient)
T1 sequence (Q92538 whole entry, species assumed): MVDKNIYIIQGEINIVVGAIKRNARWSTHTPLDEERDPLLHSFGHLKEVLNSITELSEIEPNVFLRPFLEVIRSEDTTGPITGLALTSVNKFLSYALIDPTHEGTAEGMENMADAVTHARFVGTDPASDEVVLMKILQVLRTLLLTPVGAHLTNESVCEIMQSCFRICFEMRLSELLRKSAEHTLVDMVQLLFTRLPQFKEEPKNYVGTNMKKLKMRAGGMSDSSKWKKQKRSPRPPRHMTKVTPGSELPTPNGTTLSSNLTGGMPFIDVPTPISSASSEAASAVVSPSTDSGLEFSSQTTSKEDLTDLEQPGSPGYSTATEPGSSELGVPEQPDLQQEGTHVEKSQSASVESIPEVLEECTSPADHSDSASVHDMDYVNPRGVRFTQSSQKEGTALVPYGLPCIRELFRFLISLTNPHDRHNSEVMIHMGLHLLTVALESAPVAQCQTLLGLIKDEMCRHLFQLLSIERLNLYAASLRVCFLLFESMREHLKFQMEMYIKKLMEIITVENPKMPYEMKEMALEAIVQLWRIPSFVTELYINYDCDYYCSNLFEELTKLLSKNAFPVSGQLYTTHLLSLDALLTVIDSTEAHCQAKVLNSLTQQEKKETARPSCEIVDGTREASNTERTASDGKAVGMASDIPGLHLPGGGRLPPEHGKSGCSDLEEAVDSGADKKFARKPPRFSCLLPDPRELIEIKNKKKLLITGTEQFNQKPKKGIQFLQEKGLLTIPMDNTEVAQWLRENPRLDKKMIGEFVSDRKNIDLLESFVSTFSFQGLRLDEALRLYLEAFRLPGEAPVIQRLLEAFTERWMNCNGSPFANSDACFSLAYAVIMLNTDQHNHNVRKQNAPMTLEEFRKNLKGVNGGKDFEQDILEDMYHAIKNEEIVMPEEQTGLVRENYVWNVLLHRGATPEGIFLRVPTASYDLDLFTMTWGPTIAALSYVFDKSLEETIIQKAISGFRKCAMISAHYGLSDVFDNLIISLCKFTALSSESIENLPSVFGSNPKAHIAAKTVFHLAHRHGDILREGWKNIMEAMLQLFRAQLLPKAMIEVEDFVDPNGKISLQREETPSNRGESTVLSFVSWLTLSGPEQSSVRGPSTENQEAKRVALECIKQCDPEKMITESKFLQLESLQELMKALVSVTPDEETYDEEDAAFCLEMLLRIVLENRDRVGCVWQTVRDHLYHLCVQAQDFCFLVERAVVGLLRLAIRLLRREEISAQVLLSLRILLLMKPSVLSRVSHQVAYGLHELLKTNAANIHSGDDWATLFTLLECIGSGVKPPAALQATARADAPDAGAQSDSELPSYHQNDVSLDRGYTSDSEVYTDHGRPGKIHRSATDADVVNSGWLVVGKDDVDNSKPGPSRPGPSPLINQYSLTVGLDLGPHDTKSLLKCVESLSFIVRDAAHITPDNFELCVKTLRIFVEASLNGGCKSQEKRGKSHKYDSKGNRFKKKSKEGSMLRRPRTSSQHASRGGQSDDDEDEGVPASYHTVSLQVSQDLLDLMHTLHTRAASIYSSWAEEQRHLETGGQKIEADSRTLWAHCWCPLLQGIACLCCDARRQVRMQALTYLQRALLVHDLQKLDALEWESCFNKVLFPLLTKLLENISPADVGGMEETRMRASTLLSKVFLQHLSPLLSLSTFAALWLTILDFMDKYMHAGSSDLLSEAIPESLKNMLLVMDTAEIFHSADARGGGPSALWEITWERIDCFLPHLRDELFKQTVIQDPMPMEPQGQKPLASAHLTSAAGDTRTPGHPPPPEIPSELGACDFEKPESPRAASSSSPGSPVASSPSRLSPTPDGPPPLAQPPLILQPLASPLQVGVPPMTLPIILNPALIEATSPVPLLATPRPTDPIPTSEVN
Nature of the data set: GBF1-GFP distribution in transfected HeLa cells. It counts as cell-based. The settings on record: FLI-06 10 μM, BFA 10 μg/ml, GCA 10 μM, 10 h.

In data set [5] the test system is YFP-GPI. Kind of data set: Surface transport of YFP-GPI in HeLa cells. Conditions: 18 h; 1 ig/ml BFA or 10 iM FLI-06. It counts as cell-based.
Data set [6] has as its system KlothoS. Nature of the data set: Secretion of KlothoS from transfected HeLa cells. The settings on record: 18 h. The format is cell-based. The protocol: Thereafter cells were fixed and analyzed by immunofluorescence microscopy. […] After incubating with compounds for 18 h media were collected, cells lysed and both analyzed by Western Blotting using Klotho antibody. As loading control membranes were probed for actin. […] […] Tunicamycin (Tun) and 5 mM DTT were used as positive controls. […] Shown is the average of three independent experiments, error bars indicate standard deviation.

The test system of data set [7] is BIP and ATF6. Nature of the data set: ER stress: BIP Western blot and ATF6 luciferase assay in HeLa cells. The settings on record: 6 or 24 h. (In general: A western blot detects proteins with antibodies after separation by electrophoresis.)
In data set [8] the test system is BIP and ATF6.

As to `C=C1[C@@H](C)[C@H]2[C@H](Cc3ccccc3)NC(=O)[C@]23[C@H](OC(C)=O)/C=C/[C@@](C)(O)C(=O)[C@@H](C)C/C=C/[C@H]3[C@@H]1O` [Cytochalasin D, cytochalasin D, reference compound], the “actin polymerization and distribution” value in data set [1] (2 iM cytochalasin D or 10 iM FLI-06) is given as “depolymerized f-actin”.

`C[C@H]1CCC/C=C/[C@@H]2C[C@H](O)C[C@H]2[C@H](O)/C=C/C(=O)O1` [BFA, Brefeldin A, reference compound]: the “time to loss of Golgi-like juxtanuclear βCOP staining” value in data set [2] (1 ig/ml BFA or 10 iM FLI-06) was 10 min. Further, in data set [2] (10 iM FLI-06 or 1 ig/ml BFA, 18 h), the “distribution of GM130 and TGN46” value was “dispersal of the cis-Golgi marker GM130 and of the trans-Golgi network (TGN) marker TGN46”. For the same compound, the “hyperglycosylation of VSVG-EGFP” value in data set [2] (4 h at 40° C. with cycloheximide) is “led to hyperglycosylation in the ER”. The endocytosis of transferrin result in data set [3] is listed as “did not affect endocytosis”. Moreover, the “distribution of GBF1-GFP” value in data set [4] was “recruited to the fragmented Golgi”. Moreover, the “surface transport of YFP-GPI” value in data set [5] was “inhibit surface transport of YFP-GPI”. In data set [6], the “secretion of KlothoS” value is given as “inhibit secretion of KlothoS”. The “ER-stress (BIP up-regulation, ATF6 luciferase)” value in data set [7] was “caused ER-stress”.

As for `Fc1cc(F)c2c(c1)[C@H]1C=CC[C@H]1C(c1cccnc1)N2` (mixture of isomers) [GCA, Golgicide A, reference compound], the “distribution of GBF1-GFP” value in data set [4] is recorded as “recruited to the fragmented Golgi”. The “ER-stress (BIP up-regulation, ATF6 luciferase)” value in data set [8] is given as “caused ER-stress”.

With `COC(=O)Nc1nc2ccc(C(=O)c3cccs3)cc2[nH]1` [nocodazole, reference compound], the microtubule network entry in data set [1] (1.5 ig/ml nocodazole or 10 iM FLI-06) was “almost completely disintegrated”.
